Columns and labels:
[1] = tested on: Crl:NMRI (SPF) female mice; test: Acute intravenous toxicity of CP04 in mice; type: in vivo; conditions: 178.5 μg/kg body weight iv
Description: For acute intravenous toxicity studies Crl:NMRI (SPF) female mice provided by Charles River Laboratories (Germany) of 7–9 weeks of age and a body weight of 26–33 g were used. For extended acute single dose toxicity study in rats, 45 female and 45 male Wistar Hannover RccHan™ rats were used purchased from Harlan Laboratories, B.V. (The Netherlands). Animals were […] of age and the body weights were 195–235 g for males and 164–199 g for females. For in vivo stability tests and biodistribution/dosimetry studies healthy male Swiss albino mice from NCSR “Demokritos” Animal House were used, of 8–10 weeks of age and a body weight of 20–25 g. […]
The CP04 precursor was dissolved in phosphate buffered saline (PBS pH 7.4) and was administered at a dose of 178.5 μg/kg body weight and a dose volume of 5 mL/kg body weight into the caudal vein of two groups of three mice (Acute Intravenous Toxicity Study in Mice, Harlan Laboratories Study #D04314). […] Mortality, viability and clinical signs were recorded. […] Mortality/viability was recorded within the first 30 min and approximately 1, 2, 3 and 5 h after administration on test day 1 (with the clinical signs) and twice daily during days 2–15. Body weights were recorded on test day 1 (prior to administration) and on test days 8 and 15. […]

CCK2R = tested on: CCK2R; design: method as in Aloj et al., 2011; Kolenc Peitl et al., 2015; conditions: ref Aloj et al., 2011; Kolenc Peitl et al., 2015; cited from earlier work
[2] = tested on: Wistar Hannover RccHan rats; test: Extended acute single dose intravenous (bolus) toxicity study in rats; type: in vivo
Description: For acute intravenous toxicity studies Crl:NMRI (SPF) female mice provided by Charles River Laboratories (Germany) of 7–9 weeks of age and a body weight of 26–33 g were used. For extended acute single dose toxicity study in rats, 45 female and 45 male Wistar Hannover RccHan™ rats were used purchased from Harlan Laboratories, B.V. (The Netherlands). Animals were […] of age and the body weights were 195–235 g for males and 164–199 g for females. For in vivo stability tests and biodistribution/dosimetry studies healthy male Swiss albino mice from NCSR “Demokritos” Animal House were used, of 8–10 weeks of age and a body weight of 20–25 g. For the CCK2R-expressing tumour model, male SCID mice from NCSR “Demokritos” Animal House were used, of 6 weeks of age on arrival day and a body weight of 20 ± 2 g.
The study was designed according to the microdosing concept as described in ICH guideline M3 (R2) (“Note for guidance on non-clinical safety studies for the conduct of human clinical trials and marketing authorization for pharmaceuticals” (CPMP/ICH/286/95)). In brief, 90 rats were distributed into three dose groups, each containing fifteen animals per sex (Table 1). The animals from Group 1 received only PBS, serving as controls, while groups II and III received the CP04 solution by single intravenous (bolus) injection at a low (89 μg/kg body weight: Group 2) and a high dose (890 μg/kg body weight: Group 3). A 24-h observation period followed (Allocation A), except for five animals per sex from each group for which treatment was followed by an additional 14-day treatment-free recovery period (Allocation B).
At day 2 blood samples were withdrawn from Allocation-A animals for haematology, clinical biochemistry and samples for urinary analyses were collected. These animals were necropsied on the same day and histological examinations were performed on an extended set of organs (adrenal glands, kidneys, liver, pancreas, sternum (including bone marrow), small intestine, stomach, thyroid/parathyroid glands and gross lesions). The animals from Allocation-B remained untreated for the following 14 days, but on day 15 underwent the same procedure described above (Extended Acute Intravenous (Bolus) Toxicity Study in Rats, Harlan Study #S47364).

[3] = design: species or system mice
Description: Clearance kinetics in each organ was determined by exponential curve fitting. The time-integrated activity concentration (TIAC) was obtained by integration of this exponential curve folded with the decay curve of ^111In and ^177Lu.Mouse dosimetry was calculated for both ^177Lu and ^111In using the TIAC and the 25 g RADAR mouse absorbed dose rates per unit activity S for each source and target organ combination ([Keenan et al., 2010]; [Konijnenberg et al., 2014]).

Structure (SMILES)	macroscopic findings at necropsy ([1]; female mice)	survival and systemic signs of toxicity ([1]; two groups of three female mice, 14 days observation)	CCK2R-affinity, IC50 (CCK2R)	maximum recommended starting dose (MRSD) for a first-in-human clinical trial ([2]; HED with safety factor of 10) [µg/kg]	human equivalent dose (HED) ([2]; NOAEL × rat km/human km = 89 μg/kg × 6/37) [µg/kg]	reticulocyte count ([2]; male rats, 14 days after single bolus 890 μg/kg body weight)	mean food consumption and body weight gain ([2]; rats, single bolus 890 μg/kg body weight)	NOAEL initially established, based on pathological examination ([2]; rats, single intravenous bolus) [μg/kg body weight]	no-observed-adverse-effect-level (NOAEL) ([2]; rats, single intravenous bolus, eventually set value) [μg/kg body weight]	survival and clinical signs ([2]; rats, single iv bolus 89 or 890 μg/kg, 24-h study period)	Absorbed dose per injected activity, Bone [3] [mGy/MBq]	Absorbed dose per injected activity, Kidneys [3] [mGy/MBq]	Absorbed dose per injected activity, Large intestine [3] [mGy/MBq]	Absorbed dose per injected activity, Liver [3] [mGy/MBq]	Absorbed dose per injected activity, Lungs [3] [mGy/MBq]	Absorbed dose per injected activity, Pancreas [3] [mGy/MBq]	Absorbed dose per injected activity, Small intestine [3] [mGy/MBq]	Absorbed dose per injected activity, Spleen [3] [mGy/MBq]	Absorbed dose per injected activity, Stomach wall [3] [mGy/MBq]	Absorbed dose per injected activity, Total body [3] [mGy/MBq]
CSCC[C@H](NC(=O)[C@H](Cc1c[nH]c2ccccc12)NC(=O)CNC(=O)[C@H](Cc1ccc(O)cc1)NC(=O)[C@H](C)NC(=O)[C@@H](CCC(=O)O)NC(=O)[C@@H](CCC(=O)O)NC(=O)[C@@H](CCC(=O)O)NC(=O)[C@@H](CCC(=O)O)NC(=O)[C@@H](CCC(=O)O)NC(=O)[C@@H](CCC(=O)O)NC(=O)CN1CCN(CC(=O)O)CCN(CC(=O)O)CCN(CC(=O)O)CC1)C(=O)N[C@@H](CC(=O)O)C(=O)N[C@@H](Cc1ccccc1)C(N)=O [CP04, DOTA-(DGlu)6-Ala-Tyr-Gly-Trp-Met-Asp-Phe-NH2]	No macroscopic findings	All animals survived until the end of the study with no systemic signs of toxicity evident	lower nM range	1.4	14.4	marked decrease	moderate decrease	890	89	All animals survived the 24-h study period with no clinical signs being recorded	–	–	–	–	–	–	–	–	–	–
CSCC[C@H](NC(=O)[C@H](Cc1c[nH]c2ccccc12)NC(=O)CNC(=O)[C@H](Cc1ccc(O)cc1)NC(=O)[C@H](C)NC(=O)[C@@H](CCC(=O)O)NC(=O)[C@@H](CCC(=O)O)NC(=O)[C@@H](CCC(=O)O)NC(=O)[C@@H](CCC(=O)O)NC(=O)[C@@H](CCC(=O)O)NC(=O)[C@@H](CCC(=O)O)NC(=O)CN1CCN(CC(=O)O)CCN(CC(=O)O)CCN(CC(=O)O)CC1)C(=O)N[C@@H](CC(=O)O)C(=O)N[C@@H](Cc1ccccc1)C(N)=O [^177Lu-CP04, metal not drawn]	–	–	–	–	–	–	–	–	–	–	51	400	36	7	12	16	36	9	86	19

Source: publication PMC4948680 (European journal of pharmaceutical sciences : official …, 2016)
